Measured values as given in paper PMC8110578, “Phenylethynylbenzyl-modified biguanides inhibit pancreatic cancer tumor growth” (Scientific Reports, 2021).

How the values were obtained:
[1] = test system: NB508 mouse pancreatic ductal adenocarcinoma cells; assay: In vitro growth inhibition screen at 5 µM, NB508 cells; type: cell-based; conditions: 72 h at 37 °C
Excerpt: (§1) Figure 1 (A) Structure and crystal packing of previously studied PEB-disubstituted (A.1) and monosubstituted (A.2 and A.3) benzimidazolium salts. Compound A.1 is an efficient chloride transporter forming channels and generating holes in bacterial membranes and red blood cellular membranes. Compound A.2 penetrates phospholipid membranes but is less efficient as ion transporter as it forms more compact aggregates; its toxicity on RBC is lower than compound A.1. The replacement of the phenyl group with a methyl group in compound A.3 results in the formation of even more compact aggregates with even lower toxicity on RBC. (B) Structure of PEB-substituted biguanidium salts. For each biguanide we prepared three series of biguanidium salts with different counterions. (C) Synthesis of 4-(phenylethynyl)benzylbiguanide 1 and 4-(phenylethyl)benzylbiguanide 2; (a) Phenylacetylene, PdCl2PPh3, CuI, PPh3, Et3N, THF, 70 °C, o.n. (b) NaCN(BH3)3, EtOHNH4OAc sat./NH3, 80 °C, o.n (c) Dicyandiamide, TMSCl, THFanh., 145 °C, 1 h (d) Pd/C 10%, H2, EtOH/AcOEt, 60 °C, 2 h. (D) Synthesis of 4-(phenylethynylphenyl)biguanidium 3 and 4-(phenylethylphenyl)biguanidium 4 (a) (1) Boc2O, THF, 2 h, (2) Phenylacetylene, PdCl2PPh3, CuI, PPH3, Et3N, THF, 70°, o.n. (b) TFA, DCM, 60 °C, 2 h (c) Dicyandiamide, TMSCl, THFanh, 145 °C, 1 h (d) Pd/C 10%, H2, EtOH/AcOEt, 60 °C, 2 h. The NMR spectra of the synthesized compounds are given in Supplementary Figs. S1–S24. (E) Relative growth of NB508 mouse pancreatic ductal adenocarcinoma cells and IMR90 fibroblasts exposed to 5 µM of PEB-biguanidium salts. Cells were incubated for 72 h at 37 °C. Errors bars represent the standard error of the mean (SEM), *p < 0.05, **p < 0.01, Student’s t test. (F) Crystal structure of 1b showing its self-assembly in the solid state. Crystal data is available in Supplementary Tables S1–S8 and crystal packing in Supplementary Fig. S25. TEXT PRINTED IN THE PICTURE: (A) A.1: HC50: 0.15 mM | (A) A.2: HC50: 1 mM | (A) A.3: HC50: 150 mM
NB508 is an aggressive pro-metastatic pancreatic cancer cell line that we used previously to study the role of mitochondria in pancreatic cancer. […].

[2] = U-tube experiment (partition across a bulk hydrophobic solvent); type: physicochemical; conditions: 250 µM on cis side, up to 72 h
Protocol: (§2) Figure 2 (A) Partition of compounds in an U-tube experiment. Concentration of biguanide on the trans-side of the U-tube at 48 h and 72 h at 25 °C, after addition of 250 µM of biguanide on the cis-side. (B) Variation in the internal pH of HPTS-containing EYPC liposomes. Intravesicular solution: 1 mM HPTS, 10 mM HEPES, and 100 mM NaCl, adjusted to pH = 7.4, and extravesicular solution: 10 mM HEPES and 100 mM NaCl, adjusted to pH = 7.4. Biguanidiums were injected after 50 s at 5 mM (50 mol% relative to the 10 mM EYPC concentration), a NaOH pulse was induced at 300 s, and the liposomes were lysed with Triton-X at 550 s. Each curve is the average of three independent measurements. (C) Fluorescence of safranin O in the EYPC liposomes. Biguanidium salts were injected at 5 mM (50 mol% relative to the 10 mM EYPC concentration) at 50 s. Each curve is the average of three independent measurements. […] Mitochondrial isolation was performed according to the previously reported protocol.
Experimental. U-tube experiment was prepared by adding 800 µL of dichloromethane in a U-shaped tube as a representation of the hydrophobic lipid membrane. On the receiving end (trans side) of the tube was added 300 µL of distilled water while the other side (cis side) was filled with 300 µL of a 250 µM solution of the compound of interest at 25°C. At 48h and 72h, 100 µL aliquot of the trans side was diluted in 900 µL methanol and monitored by LCMS (292 m/z). Area under curve (AUC) was measured and fitted on a calibration curve.

[3] = HPTS assay, internal pH of EYPC liposomes; conditions: 5 mM (50 mol% relative to 10 mM EYPC), NaOH pulse at 300 s
Protocol: as §2

[4] = Safranin O assay, membrane potential of EYPC liposomes; conditions: 5 mM (50 mol% relative to 10 mM EYPC)
Protocol: as §2

[5] = test system: KP4 cells sub-cutaneous xenografts; assay: KP4 sub-cutaneous xenografts in nude mice; conditions: 50 mg/kg/day IP, 5 day/week, from day 11 post engraftment, 37 days
Excerpt: This dose was chosen from previous work on biguanides to treat mice with pancreatic cancer.
Figure 5 Progression of the volume of KP4 cells sub-cutaneous xenografts performed in nude mice over 37 days. […] (B) Body weight of mice seven days after treatment. […] Representative images shown. Scale bar = 100 µm. […] Results are shown in graphics comparing the percentage of cells stained in each category and the intensity of staining. (E,G) Images of the most representative phenotypes for KI67 staining (E) and cleaved caspase 3 (G).
Experimental. All experiments were performed in accordance to the rules of the in vivo ethical committe of University of Montreal (CDEA #17-103). 6-7 weeks old female nude mice (Hsd:Athymic Nude- Foxn1nu, Envigo) were implanted sub-cutaneously with 750.000 KP4 cells in 100μl of a sterile mix of 20% Matrigel (Corning) in saline solution. Tumor volume was determined by using a caliper, following the formula 4/3*Π*(L*W*T) were L represent the length of the tumor, W, the width, and T, the thickness (all measured in millimeter). […] The compounds were dissolved in the vehicle: 45% Propyleneglycol (Sigma-Aldrich) +5% Tween 80 (Sigma-Aldrich) + ddH2O.

[6] = test system: KP4 tumor sections; assay: KI67 and cleaved caspase 3 staining of tumor sections from treated mice; type: in vivo, nude mice; conditions: 50 mg/kg, tumor sections after treatment
Excerpt: (B) Body weight of mice seven days after treatment. […] Representative images shown. Scale bar = 100 µm.
To assess the mechanism of the antitumor activity, we stained tumor sections obtained from animals after the treatment protocol for proliferation marker KI67 and apoptosis marker cleaved caspase 3, and quantified the data according to the scoring key in Fig. 5C. […] However, there were no significant differences in staining for cleaved caspase 3 […].

[7] = test system: IMR90 fibroblasts; assay: In vitro growth inhibition screen at 5 µM, IMR90 fibroblasts; type: cell-based, human; conditions: 72 h
Excerpt: as §1, with “The NMR spectra of the synthesized compounds are given in Supplementary Figs. S1–S24. (E) Relative growth of NB508 mouse pancreatic ductal adenocarcinoma cells and IMR90 fibroblasts exposed to 5 µM of PEB-biguanidium salts. Cells were incubated for 72 h at 37 °C. Errors bars represent the standard error of the mean (SEM), *p < 0.05, **p < 0.01, Student’s t test. (F) Crystal structure of 1b showing its self-assembly in the solid state. Crystal data is available in Supplementary Tables S1–S8 and crystal packing in Supplementary Fig. S25. TEXT PRINTED IN THE PICTURE: (A) A.1: HC50: 0.15 mM | (A) A.2: HC50: 1 mM | (A) A.3: HC50: 150 mM” left out

[8] = test system: red blood cells; assay: Hemolytic activity of PEB-biguanidium salts; type: cell-based; conditions: red blood cells 2% v/v in PBS, 1 h at 37 °C
Protocol: The toxicity of PEB-Biguanidiums salts was estimated through their hemolytic activity by incubating red blood cells (RBC) with the compounds for 1 h (See Supplementary Table S13 and Supplementary Fig. S29).
Experimental. Red blood cells in Alsever’s solution were centrifuged for 10 min at 300g, washed 3 times with PBS buffer, and resuspended in PBS at 2% v/v. To each well of a 96-well plate, 195 µL of red blood cell solution and 5 µL of biguanidium salt in DMSO were added, and the plate was incubated with light agitation for 1 h at 37 °C. The plate was then centrifuged for 10 min at 300g, and 50 µL of the supernatant solution of each well was transferred to another plate. Absorbance was measured at λ = 405 nm. Each measurement was performed in triplicate in three different experiments.

[9] = test system: KP4 cells; assay: Growth assay (crystal violet), KP4 cells; type: cell-based, human; conditions: Homo sapiens, KP-4, 72 h, KP4 cells, 3 days treatment, crystal violet retention assay; read-out: IC50 KP4
Protocol: (§3) All chemicals were purchased from Aldrich Chemicals in their highest purity and used without further purification. Deuterated dimethylsulfoxide (DMSO-d^6) and deuterated chloroform (CDCl3) were purchased from CDN Isotopes. NMR spectra were recorded on Bruker advance 400 and 100 spectrometers. Coupling constants are given in hertz (Hz) and chemical shifts are given in parts per million (ppm, δ) measured relative to the residual solvent (the multiplicity of the signals are given as s: singlet, d: doublet, t: triplet, and m: multiplet). High-resolution mass spectra (HRMS) were recorded on a TSQ Quantum Ultra (Thermo Scientific) triple quadrupole with accurate mass option instrument (Université de Montréal Mass Spectrometry Facility). MS experiences were performed using an UltrafleXtreme MALDI TOF/TOF mass spectrometer equipped with a SmartBeam II Nd:Yag/355 nm laser operating at 1 kHz and providing a laser focus down to 20 μm in diameter (Bruker Daltonics, Billerica, MA). The data acquisition for MS was performed in positive ion mode using the linear geometry with flexControl 3.4 (Bruker Daltonics, Billerica, MA). Acceleration voltage was set to + 25 kV and all other instrumental parameters (delayed extraction parameters, source voltages, detector gain, laser energy, etc.) were optimized for maximum S/N for the drug compounds. L-α-Phosphatidylcholine was purchased from Avanti Polar Lipids. Transport and depolarization studies as well as absorbance measurements were performed on a Varian Cary Eclipse fluorescence spectrophotometer. The hemolysis assays were performed on a Fluostar Optima plate reader. Single crystals of C18H18F3N5O3S were obtained from chloroform. A suitable crystal was selected and analysed on a Bruker Venture Metaljet diffractometer. Crystal violet retention assay was used for cell growth assays and IC50 were determined using Prism (GraphPad). NAD/NADH quantitation colorimetric kit (#K337-100) from Biovision was used according to manufacturer’s instructions. ECAR (extracellular acidification rate) and OCR of KP4 cells (oxygen consumption rate) were measured on a Seahorse XF-24 (Agilent).
(§4) Experimental. KP4 (Riken RCB1005) and PSN1 (ATCC: CRM-CRL-3211), were cultured in Dulbecco's modified Eagle's medium (DMEM) (Wisent, St-Bruno, QC) supplemented with 10 % of fetal bovine serum (FBS) (Wisent). HPNE hTERT (ATCC: CRL1423) were cultured in a mix of 75% DMEM without glucose (Sigma Cat#. D-5030) with additional 2 mM L-glutamine and 1.5 g/L sodium bicarbonate, 25% Medium M3 Base (Incell Corp. Cat# M300F- 500), fetal bovine serum 5% (wisent 10 ng/ml human recombinant EGF (Sigma-Aldrich), 5.5 mM D-glucose (Sigma-Aldrich), 750 ng/ml puromycin (Sigma-Aldrich). For dose-response assays, cells were seeded in 96 well plates (company). After 24 h, treatments were applied and cells were grown for 3 more days. Crystal violet retention assay used for cell growth assays were described previously^2. The data is expressed as relative absorbance of crystal violet extracted from the cells and diluted in 10 % acetic acid. IC50 were determined using Prism (GraphPad). Tumor spheres were grew according to Ferbeyre et al^3.

[10] = test system: HPNE cells (normal immortalized pancreatic epithelial cells); assay: Growth assay (crystal violet), HPNE cells; type: cell-based, human; conditions: 3 days treatment, crystal violet retention assay
Protocol: . The IC50 of most of the synthetic biguanides in HPNE cells was higher than for cancer cells (Supplementary Table S12).
as §3, §4

Compound: [H]/N=C(/N)N/C(=N/[H])NCCc1ccccc1 [phenformin, reference compound]
- Growth inhibition of NB508 cells [1]: no effect was observed
- Crossing to the trans-aqueous side of the U-tube (in words) [2]: only traces
- Change of internal vesicular pH (HPTS) [3]: no membrane activity
- Membrane depolarization (Safranin-O fluorescence) [4]: did not show this activity
- Effect on tumor volume [5]: only modest or non-significant effects
- KI67 staining in tumors [6]: to a smaller extent

Compound: N=C(N)NC(=N)NCc1ccc(C#Cc2ccccc2)cc1 [1a, 4-(phenylethynyl)benzylbiguanide]
- Growth inhibition of NB508 cells [1]: most important antiproliferative activities
- Selectivity towards cancer cells (NB508 vs IMR90 fibroblasts) [7]: good selectivity towards cancer cells
- HC 10% (µM) [8]: > 175 µM
- HC 10% (µg/ml) [8]: > 100 µg/mL
- IC50 [9]: 7.55 µM
- IC50 [10]: 16.1 µM
